Earlier results, collected in US8071623B2, “Amide substituted indazoles as poly(ADP-ribose)polymerase(PARP) inhibitors” (Instituto di Ricerche di Biologia Molecolare P. Angeletti …, priority 2007, dated 2011).

Test system: ischemia and reperfusion of the heart
Settings: rabbits

Row | Structure (SMILES) | reductions in infarct size in the heart (single injection 10 mg/kg, one minute before occlusion or one minute before reperfusion) | reduced infarct size (single injection 1 mg/kg)
1 | NC(=O)c1cccc(N)c1 [3-amino-benzamide] | 32-42% | 
2 | Oc1cccc2c(O)nccc12 [1,5-dihydroxyisoquinoline] |  | 38-48%
